{
  "source": "BindingDB's records for doi:10.1021/acs.jmedchem.9b01317",
  "about": "(Fudan University, 2020)",
  "assay": "Inhibition of RIPK3 in human HT-29 cells assessed as reduction in TSZ-induced necroptosis by Cell Titer Glo assay",
  "data": [
    {"smiles": "CC(=O)O[C@@H]1CCC(C)(C)[C@H]2C[C@@H](O)C3=C[C@@H](CCC(=O)[C@@]21C)[C@H](C)C3=O", "values": [
      {"measurement": "IC50", "value": 200, "unit": "nM"}
    ]}
  ]
}
